{
  "source": "patent US11912681B2",
  "about": "“Crystalline and salt forms of PPAR agonist compounds” (Mitobridge, Inc., priority 2016, dated 2024)",
  "assay_type_in_all_cases": "physicochemical",
  "key": {"[1]": {"experiment": "Chemical stability study, degradation and recovery by HPLC", "experimental": "(§1) The material was stored at 4° C., 25° C./60% RH, 40° C., and 40° C./75% RH for eight weeks as well as stressed conditions of 70° C. and 70° C./75% RH for two weeks. In addition, photostability was also measured after exposing the material to two cycles of ICH conditions. Degradation and recovery was measured by HPLC. See Table 6 for HPLC results, including percent recovery of solids and relative retention time area percentages, compared against the standard stored at 4° C."}, "[2]": {"experiment": "Dynamic vapor sorption analysis (hygroscopicity)", "text": "At approximately 90% RH, the material reversibly picks up approximately 3.5% water by weight."}, "[3]": {"experiment": "Stability of Compound A salts in water (XRPD)", "conditions": "about 20 mg in 1 mL water, overnight, 20° C., 850 rpm", "experimental": "The stability of the sulfate, phosphate, L-lysine, and TRIS salts prepared in Example 3 were tested. Approximately 20 mg of each sample was combined with 1 mL of water in microcentrifuge tubes. The samples were allowed to mix overnight on a temperature controlled shaker at 20° C. at 850 rpm. The solids were characterized by XPRD to determine if a solid state form change occurred."}, "[4]": {"experiment": "Physical stability on storage by XRPD", "conditions": "all storage conditions of the stability study", "experimental": "as §1\nXRPD was used to check the physical stability."}, "[5]": {"experiment": "Thermodynamic stability form (slurry) screen, XRPD", "conditions": "fifteen days", "experimental": "The vials were sealed then placed onto temperature controlled stir plates and stirred for fifteen days at 500 rpm."}, "[6]": {"experiment": "Relative thermodynamic stability of hemisulfate form 1 and form 2 (DSC, competition slurry)", "conditions": "ethyl acetate, two days at 25° C. then eight days at 4° C., slurried with form 1", "experimental": "[…] Both forms were still present in the slurry, so the experiment was moved to 4° C.\nAfter two days, both forms were still present in the slurry, so the experiment was moved to 4° C."}},
  "data": [
    {"molecule": "Cc1cnc(-c2ccc(C(F)(F)F)cc2)n1Cc1ccccc1OCCC[C@@H](C)CC(=O)O", "note": "[Compound A hemisulfate form 1, (R)-3-methyl-6-(2-((5-methyl-2-(4-(trifluoromethyl)phenyl)-1H-imidazol-1-yl)methyl)phenoxy)hexanoic acid]", "values": [
      {"measurement": "% recovery of solids (HPLC)", "setting": "[1]; 4° C., 4 wk", "value": 101, "unit": "%"},
      {"measurement": "% recovery of solids (HPLC)", "setting": "[1]; 4° C., 8 wk", "value": 100, "unit": "%"},
      {"measurement": "% recovery of solids (HPLC)", "setting": "[1]; 25° C./60% RH, 4 wk", "value": 100, "unit": "%"},
      {"measurement": "% recovery of solids (HPLC)", "setting": "[1]; 25° C./60% RH, 8 wk", "value": 99, "unit": "%"},
      {"measurement": "% recovery of solids (HPLC)", "setting": "[1]; 40° C., 4 wk", "value": 101, "unit": "%"},
      {"measurement": "% recovery of solids (HPLC)", "setting": "[1]; 40° C., 8 wk", "value": 101, "unit": "%"},
      {"measurement": "% recovery of solids (HPLC)", "setting": "[1]; 40° C./75% RH, 4 wk", "value": 101, "unit": "%"},
      {"measurement": "% recovery of solids (HPLC)", "setting": "[1]; 40° C./75% RH, 8 wk", "value": 100, "unit": "%"},
      {"measurement": "% recovery of solids (HPLC)", "setting": "[1]; 70° C., 2 wk", "value": 101, "unit": "%"},
      {"measurement": "% recovery of solids (HPLC)", "setting": "[1]; 70° C./75% RH, 2 wk", "value": 101, "unit": "%"},
      {"measurement": "% recovery of solids (HPLC)", "setting": "[1]; Control (dark) of photostability", "value": 100, "unit": "%"},
      {"measurement": "% recovery of solids (HPLC)", "setting": "[1]; Photo, two cycles of ICH conditions", "value": 98, "unit": "%"},
      {"measurement": "water picked up by weight (DVS)", "setting": "[2]; 25° C., approximately 90% RH, reversible", "value": "approximately 3.5%"},
      {"measurement": "solid form after DVS (XRPD)", "setting": "[2]; after DVS at 25° C.", "value": "remained Compound A hemisulfate form 1"},
      {"measurement": "solid state form change (XRPD) after mixing in water", "setting": "[3]", "value": "no change in the solids"},
      {"measurement": "physical stability, solid state form (XRPD)", "setting": "[4]", "value": "No changes in solid state form"},
      {"measurement": "Results (solid state form after slurry)", "setting": "[5]; 2-Methyl-THF, 25° C.", "value": "No change in form"},
      {"measurement": "Results (solid state form after slurry)", "setting": "[5]; 2-Propanol, 50° C.", "value": "No change in form"},
      {"measurement": "Results (solid state form after slurry)", "setting": "[5]; Acetone, 25° C.", "value": "No change in form"},
      {"measurement": "Results (solid state form after slurry)", "setting": "[5]; Acetonitrile, 50° C.", "value": "No change in form"},
      {"measurement": "Results (solid state form after slurry)", "setting": "[5]; CPME, 50° C.", "value": "No change in form"},
      {"measurement": "Results (solid state form after slurry)", "setting": "[5]; Dichloromethane, 4° C.", "value": "No change in form"},
      {"measurement": "Results (solid state form after slurry)", "setting": "[5]; Ethanol, 50° C.", "value": "No change in form"},
      {"measurement": "Results (solid state form after slurry)", "setting": "[5]; Ethyl Acetate, 50° C.", "value": "No change in form"},
      {"measurement": "Results (solid state form after slurry)", "setting": "[5]; Tetrahydrofuran, 25° C.", "value": "No change in form"},
      {"measurement": "Results (solid state form after slurry)", "setting": "[5]; Toluene, 50° C.", "value": "No change in form"},
      {"measurement": "Results (solid state form after slurry)", "setting": "[5]; Water, 25° C.", "value": "No change in form"},
      {"measurement": "Results (solid state form after slurry)", "setting": "[5]; Water/Acetonitrile (1/3, v/v), 4° C.", "value": "No change in form"}
    ]},
    {"molecule": "Cc1cnc(-c2ccc(C(F)(F)F)cc2)n1Cc1ccccc1OCCC[C@@H](C)CC(=O)O", "note": "[Compound A hemisulfate form 2, (R)-3-methyl-6-(2-((5-methyl-2-(4-(trifluoromethyl)phenyl)-1H-imidazol-1-yl)methyl)phenoxy)hexanoic acid]", "values": [
      {"measurement": "competition slurry outcome (XRPD)", "setting": "[6]", "value": "remained a mixture of forms"}
    ]}
  ]
}
